Measurements published in ChEMBL document CHEMBL1138875, “Design and synthesis of substituted pyridine derivatives as HIF-1alpha prolyl hydroxylase inhibitors” (Bioorg Med Chem Lett, 2006).

Molecular target: Egl nine homolog 1 (Homo sapiens, UniProt Q9GZT9)
Assay: Inhibition of EGLN1

Chain of Egl nine homolog 1 (Q9GZT9 whole entry): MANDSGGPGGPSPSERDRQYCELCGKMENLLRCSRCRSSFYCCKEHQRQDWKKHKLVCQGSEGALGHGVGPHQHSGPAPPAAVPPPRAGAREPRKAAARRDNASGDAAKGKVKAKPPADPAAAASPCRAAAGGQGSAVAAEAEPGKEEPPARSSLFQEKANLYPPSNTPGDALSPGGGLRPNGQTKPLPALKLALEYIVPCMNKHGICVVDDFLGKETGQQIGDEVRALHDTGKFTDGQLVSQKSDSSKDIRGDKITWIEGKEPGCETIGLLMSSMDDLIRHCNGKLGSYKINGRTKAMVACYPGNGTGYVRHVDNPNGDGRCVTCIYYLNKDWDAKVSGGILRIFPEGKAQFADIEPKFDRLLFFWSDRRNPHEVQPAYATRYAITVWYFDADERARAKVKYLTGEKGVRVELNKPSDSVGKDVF

SMILES | IC50 [µM]
O=C(O)CNC(=O)c1cc(-c2ccc(Cl)cc2)ccn1 | > 100
O=C(O)CNC(=O)c1ccc(-c2cccc(Cl)c2)cn1 | > 100
O=C(O)CNC(=O)c1ccccn1 | > 100
